According to US9687522B2, “Methods of treating a subject afflicted with an autoimmune disease using predictive biomarkers of clinical response to glatiramer acetate therapy in multiple sclerosis” (TEVA PHARMACEUTICAL INDUSTRIES, LTD., priority 2010, dated 2017):

Experiments:
BDNF [1] = assay: Serum BDNF by ELISA in GA-treated MS patients; type: in vivo, human; settings: GA-R and GA-HR/NR, all treatment time points
Text: (§1) Approximately 60 cc of blood was obtained by venipuncture from each MS patient pre-treatment and at successive time points during treatment (3 months, 6 months, 9-12 months and 24 months). PBMC were purified using Ficoll-Hypaque gradients as described in the supplier's protocol (ICN Biomedicals Inc. Ohio, USA). Samples from collaborating centers were sent via overnight FedEx™ delivery at room temperature and processed immediately upon arrival.
(§2) Interleukin-18 and caspase-1 levels were detected by human ELISA kits (Sandwich ELISA, Bender Nedaystems, USA). The sensitivity of the ELISA was 9.2 and 3.3 pg/ml for IL-18 and caspase-1 respectively. TGF-β, TNF-α, IL-4, IFN-γ, IL-17 and IL-10 levels were detected by human ELISA kits from ebioscience (San Diego Calif., 92121 USA). The sensitivity of the ebioscience kits were 60 pg/ml, 4 pg/ml, 2 pg/ml, 4 pg/ml, 4 pg/ml and 2 pg/ml respectively. BDNF was detected by the Human BDNF ELISA kit from Chemicon International (catalog #CYT306). The sensitivity of the BDNF ELISA was 7.8 pg/ml. […] Duplicates should be within 20% of the mean.

IL-4 = assay: Serum IL-4 by ELISA in GA-treated MS patients; type: in vivo, human
Text: as §1, §2

BDNF [2] = assay: BDNF by ELISA in supernatant of GA-stimulated PBMC; type: cell-based, human
Procedure: as §1
2×10^5 PBMC/well were seeded in 96 well U-bottom micro titer plate in the absence of antigen (unstimulated condition) (US) or the presence of GA at 40 and 100 μg/ml (Teva Pharmaceutical Industries, Ltd., Israel), tetanus toxoid (TT 5 μg) obtained from UMASS (University of Mass, Worcester, Mass.). The latter was used as a control antigen. Supernatants were collected from cultured cells at days 1, 3 and 5 for various assays. After 5 days, 1 μCi ^3H-thymidine was added. […] Incorporated radioactivity was measured using a liquid Scintillation counter (Wallac MicroBeta Trilux, PerkinElmer, Boston, Mass.).
Interleukin-18 and caspase-1 levels were detected by human ELISA kits (Sandwich ELISA, Bender Nedaystems, USA). […] TGF-β, TNF-α, IL-4, IFN-γ, IL-17 and IL-10 levels were detected by human ELISA kits from ebioscience (San Diego Calif., 92121 USA). […] BDNF was detected by the Human BDNF ELISA kit from Chemicon International (catalog #CYT306). […]

IL-18 = assay: Serum IL-18 by ELISA in GA-treated MS patients; type: in vivo, human
Text: as §1, §2

IL-10 = IL-10 by ELISA in ex-vivo PBMC supernatant of GA-treated MS patients; type: cell-based, human
Procedure: as §1
(§3) 2×10^5 PBMC/well were seeded in 96 well U-bottom micro titer plate in the absence of antigen (unstimulated condition) (US) or the presence of GA at 40 and 100 μg/ml (Teva Pharmaceutical Industries, Ltd., Israel), tetanus toxoid (TT 5 μg) obtained from UMASS (University of Mass, Worcester, Mass.). The latter was used as a control antigen. Supernatants were collected from cultured cells at days 1, 3 and 5 for various assays. After 5 days, 1 μCi ^3H-thymidine was added. Cells were harvested 18 hours later using TOMTEC cell harvester (TOMTEC, Hamden Conn.). Incorporated radioactivity was measured using a liquid Scintillation counter (Wallac MicroBeta Trilux, PerkinElmer, Boston, Mass.).
as §2

IL-17 = IL-17 by ELISA in ex-vivo PBMC supernatant of GA-treated MS patients; type: cell-based, human
Procedure: as §1, §3, §2

IFN-γ [3] = assay: Serum IFN-γ by ELISA in GA-treated MS patients; type: in vivo, human
Text: as §1, §2

IFN-γ [4] = assay: IFN-γ ELISPOT in ex-vivo PBMC of GA-treated MS patients; type: cell-based, human; settings: CD3/CD28 stimulated PBMC
Text: as §1
(§4) Human IFN-γ (Th1 indicator) and IL-4 (Th2 indicator) were measured by the ELISPOT assay according to the manufacturer's protocol (BD Biosciences, San Diego, Calif., USA). Briefly, ELISPOT plates (PVDF plate, Millipore Corporation, MA, USA) were coated with 100 μl/well of 5 μg/ml capture antibody at 4° C. over night. The plates were then washed with PBS, and incubated with 200 μl/well of blocking solution (culture medium) for 2 hours. PBMC (2×10^5 cells/well for IFN-γ and 4×10^5 cells/well for IL-4 detection) and antigen (GA 40 and 100 μg/ml, TT 5 μg/ml, CD3Ab (2.5 μg/ml)/CD28 Ab (1 μg/ml)) was added and cultured overnight at 37° C. in a 5% CO2 incubator. Samples were tested in triplicate wells in response to each antigen. After overnight culture, the plates were washed twice with deionized water and three times with PBS, then incubated with 100 μl of 2.0 μg/ml biotinylated antibody for 2 hours at room temperature. The plates were then washed three times with wash buffer (0.05% Tween-20 PBS), and incubated with 100 μl of 1:100 dilution of Avidin-HRP for 1 hour at room temperature and washed three times with wash buffer. Finally 100 μl of AEC (3-amino-9-ethyl-carbazole) substrate was added and the reaction was stopped by washing plates with distilled water. Spots were counted and analyzed by CTL Analyzers LLC ELISPOT Plate Reader (Cleveland, Ohio, USA).

IL-4/IFN-γ ratio = IL-4/IFN-γ ratio by ELISPOT in ex-vivo PBMC of GA-treated MS patients; type: cell-based, human; settings: for IL-4/IFN-γ RATIO (ELISPOT): CD3/CD28 stimulated PBMC
Text: as §1, §4

Glatiramer acetate [GA]
Serum BDNF levels, change during GA treatment (BDNF [1]): did not show significant changes during treatment from baseline in either group | Serum IL-4 level (IL-4; HR/NR, 3 mo): 13 ± 0.92 pg/mL | Serum IL-4 level (IL-4; HR/NR, 6 mo): 13 ± 1.4 pg/mL | Serum IL-4 level (IL-4; HR/NR, 9-12 mo): 18 ± 1.4 pg/mL | Serum IL-4 level (IL-4; HR/NR, 24 mo): 16 ± 1 pg/mL | Serum IL-4 level (IL-4; HR/NR, Pre-Rx): 14 ± 0.70 pg/mL | Serum IL-4 level (IL-4; R, 3 mo): 16 ± 0.70 pg/mL | Serum IL-4 level (IL-4; R, 6 mo): 17 ± 0.81 pg/mL | Serum IL-4 level (IL-4; R, 9-12 mo): 17 ± 1.8 pg/mL | Serum IL-4 level (IL-4; R, 24 mo): 16 ± 1.0 pg/mL | Serum IL-4 level (IL-4; R, Pre-Rx): 16 ± 0.60 pg/mL | Δ IL-4 6 months, Median (Non-Responders) (IL-4; serum, change from baseline): −1.5 | Δ IL-4 6 months, Median (Responders) (IL-4; serum, change from baseline): 1 | BDNF production with GA used as ex-vivo stimulus (BDNF [2]; GA versus TT as stimulus of PBMC): slightly higher level compared to TT | supernatant BDNF levels from GA-stimulated PBMCs (BDNF [2]; GA-R group, 3 months, p=0.01, not in the GA HR/NR group): significant increase at 3 months during treatment compared to baseline | Serum IL-18 level (IL-18; HR/NR, 3 mo): 284 ± 35 pg/mL | Serum IL-18 level (IL-18; HR/NR, 6 mo): 310 ± 39 pg/mL | Serum IL-18 level (IL-18; HR/NR, 9-12 mo): 283 ± 22 pg/mL | Serum IL-18 level (IL-18; HR/NR, 24 mo): 265 ± 15 pg/mL | Serum IL-18 level (IL-18; HR/NR, Pre-Rx): 300 ± 29 pg/mL | Serum IL-18 level (IL-18; R, 3 mo): 279 ± 23 pg/mL | Serum IL-18 level (IL-18; R, 6 mo): 189 ± 26 pg/mL | Serum IL-18 level (IL-18; R, 9-12 mo): 262 ± 15 pg/mL | Serum IL-18 level (IL-18; R, 24 mo): 260 ± 12 pg/mL | Serum IL-18 level (IL-18; R, Pre-Rx): 304 ± 26 pg/mL | Δ IL-18 6 months, Median (Non-Responders) (IL-18; serum, change from baseline): 2 | Δ IL-18 6 months, Median (Responders) (IL-18; serum, change from baseline): −102 | Supernatant IL-10 level (IL-10; HR/NR, 3 mo): 160 ± 65 pg/mL | Supernatant IL-10 level (IL-10; HR/NR, 6 mo): 153 ± 69 pg/mL | Supernatant IL-10 level (IL-10; HR/NR, 9-12 mo): 181 ± 22 pg/mL | Supernatant IL-10 level (IL-10; HR/NR, 24 mo): 200 ± 59 pg/mL | Supernatant IL-10 level (IL-10; HR/NR, Pre-Rx): 143 ± 61 pg/mL | Supernatant IL-10 level (IL-10; R, 3 mo): 200 ± 65 pg/mL | Supernatant IL-10 level (IL-10; R, 6 mo): 310 ± 64 pg/mL | Supernatant IL-10 level (IL-10; R, 9-12 mo): 249 ± 70 pg/mL | Supernatant IL-10 level (IL-10; R, 24 mo): 255 ± 45 pg/mL | Supernatant IL-10 level (IL-10; R, Pre-Rx): 170 ± 60 pg/mL | Supernatant IL-17 level (IL-17; HR/NR, 3 mo): 160 ± 25 pg/mL | Supernatant IL-17 level (IL-17; HR/NR, 6 mo): 146 ± 25 pg/mL | Supernatant IL-17 level (IL-17; HR/NR, 9-12 mo): 129 ± 7.3 pg/mL | Supernatant IL-17 level (IL-17; HR/NR, 24 mo): 179 ± 21 pg/mL | Supernatant IL-17 level (IL-17; HR/NR, Pre-Rx): 178 ± 25 pg/mL | Supernatant IL-17 level (IL-17; R, 3 mo): 184 ± 40 pg/mL | Supernatant IL-17 level (IL-17; R, 6 mo): 60 ± 35 pg/mL | Supernatant IL-17 level (IL-17; R, 9-12 mo): 134 ± 12 pg/mL | Supernatant IL-17 level (IL-17; R, 24 mo): 167 ± 18 pg/mL | Supernatant IL-17 level (IL-17; R, Pre-Rx): 176 ± 31 pg/mL | Serum IFN-γ level (IFN-γ [3]; HR/NR, 3 mo): 27 ± 1.45 pg/mL | Serum IFN-γ level (IFN-γ [3]; HR/NR, 6 mo): 26 ± 1.53 pg/mL | Serum IFN-γ level (IFN-γ [3]; HR/NR, 9-12 mo): 52 ± 5.8 pg/mL | Serum IFN-γ level (IFN-γ [3]; HR/NR, 24 mo): 45 ± 5.3 pg/mL | Serum IFN-γ level (IFN-γ [3]; HR/NR, Pre-Rx): 25 ± 1.7 pg/mL | Serum IFN-γ level (IFN-γ [3]; R, 3 mo): 25 ± 2.1 pg/mL | Serum IFN-γ level (IFN-γ [3]; R, 6 mo): 24 ± 1.9 pg/mL | Serum IFN-γ level (IFN-γ [3]; R, 9-12 mo): 48 ± 6.3 pg/mL | Serum IFN-γ level (IFN-γ [3]; R, 24 mo): 45 ± 3.8 pg/mL | Serum IFN-γ level (IFN-γ [3]; R, Pre-Rx): 29 ± 2.3 pg/mL | IFN-γ expression (ELISPOT, mean number of spots) (IFN-γ [4]; HR/NR, 3 mo): 206 ± 24 | IFN-γ expression (ELISPOT, mean number of spots) (IFN-γ [4]; HR/NR, 6 mo): 233 ± 26 | IFN-γ expression (ELISPOT, mean number of spots) (IFN-γ [4]; HR/NR, 9-12 mo): 218 ± 34 | IFN-γ expression (ELISPOT, mean number of spots) (IFN-γ [4]; HR/NR, 24 mo): 186 ± 35 | IFN-γ expression (ELISPOT, mean number of spots) (IFN-γ [4]; HR/NR, Baseline): 192 ± 26 | IFN-γ expression (ELISPOT, mean number of spots) (IFN-γ [4]; R, 3 mo): 182 ± 18 | IFN-γ expression (ELISPOT, mean number of spots) (IFN-γ [4]; R, 6 mo): 150 ± 15 | IFN-γ expression (ELISPOT, mean number of spots) (IFN-γ [4]; R, 9-12 mo): 110 ± 19 | IFN-γ expression (ELISPOT, mean number of spots) (IFN-γ [4]; R, 24 mo): 86 ± 14 | IFN-γ expression (ELISPOT, mean number of spots) (IFN-γ [4]; R, Baseline): 197 ± 28 | IL-4/IFN-γ RATIO (ELISPOT) (IL-4/IFN-γ ratio; HR/NR, 3 mo): 0.08 ± 0.02 | IL-4/IFN-γ RATIO (ELISPOT) (IL-4/IFN-γ ratio; HR/NR, 6 mo): 0.06 ± 0.05 | IL-4/IFN-γ RATIO (ELISPOT) (IL-4/IFN-γ ratio; HR/NR, 9-12 mo): 0.08 ± 0.05 | IL-4/IFN-γ RATIO (ELISPOT) (IL-4/IFN-γ ratio; HR/NR, 24 mo): 0.10 ± 0.05 | IL-4/IFN-γ RATIO (ELISPOT) (IL-4/IFN-γ ratio; HR/NR, Baseline): 0.12 ± 0.05 | IL-4/IFN-γ RATIO (ELISPOT) (IL-4/IFN-γ ratio; R, 3 mo): 0.24 ± 0.04 | IL-4/IFN-γ RATIO (ELISPOT) (IL-4/IFN-γ ratio; R, 6 mo): 0.32 ± 0.07 | IL-4/IFN-γ RATIO (ELISPOT) (IL-4/IFN-γ ratio; R, 9-12 mo): 0.34 ± 0.08 | IL-4/IFN-γ RATIO (ELISPOT) (IL-4/IFN-γ ratio; R, 24 mo): 0.25 ± 0.07 | IL-4/IFN-γ RATIO (ELISPOT) (IL-4/IFN-γ ratio; R, Baseline): 0.11 ± 0.02 | IL-4/IFN-γ ratio in unstimulated and in anti-CD3/CD28 stimulated PBMC (IL-4/IFN-γ ratio; GA-R, during treatment versus pre-treatment): significantly higher among GA-R during treatment compared to pre-treatment levels
